Measured values published in patent publication US20250179059A1 (The Regents of the University of California, priority 2021, published 2025).

Key:
[1] = target: T1, human BRD4 bromodomain II (Homo sapiens, UniProt O60885); assay: Bromodomain binding assay (AlphaScreen), BRD4 BDII; conditions: AlphaScreen assay, Table C2; read-out: BRD4 BDII IC50
T1 construct: human BRD4 bromodomain II [based on Genbank NM_058243, residues 349-460]; host or cells: E. coli
How it was run: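 Tagged BRD4 BDI or BDII constructs, expressed in E. coli, competed against a K5/K8/K12/K16-acetylated biotin-H4 peptide. Proximity signal between bead pairs after room-temperature incubations gave concentration-response curves, from which IC50 was derived.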

[2] = test system: human SKM-1 acute myeloid leukemia cells; assay: SKM-1 antiproliferation cell-based assay (ATPlite); conditions: Homo sapiens, SKM-1, 96 h, SKM-1 antiproliferation assay, 4 days, Table C2
How it was run: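 Log-phase cells in RPMI 1640/15% FBS were seeded at 34722 cells/mL and exposed for 4 days to nine-concentration DMSO serial dilutions in triplicate. Viability was read as ATP luminescence (ATPlite 1step), and IC50 values came from variable-slope non-linear regression.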

IC50 [1]	GI50 [2]	Structure (SMILES)
1 to 10 nM	0.3 to 30 nM	Cn1ccn(-c2ccc(-c3cc(F)cc(-c4ccnc(N5CCCC6(CCCN6)C5)c4)c3O)cc2Cl)c1=O (stereo not drawn) [Example 694, 1-(3′-(2-(1,7-diazaspiro[4.5]decan-7-yl)pyridin-4-yl)-3-chloro-5′-fluoro-2′-hydroxy-[1,1′-biphenyl]-4-yl)-3-methyl-1H-imidazol-2(3H)-one]
0.01 to 1 nM	0.3 to 30 nM	CN1CCCC12CCCN(c1cc(-c3cc(F)cc(-c4ccc(-n5ccn(C)c5=O)c(Cl)c4)c3O)ccn1)C2 (stereo not drawn) [Example 695, 1-(3-chloro-5′-fluoro-2′-hydroxy-3′-(2-(1-methyl-1,7-diazaspiro[4.5]decan-7-yl)pyridin-4-yl)-[1,1′-biphenyl]-4-yl)-3-methyl-1H-imidazol-2(3H)-one]
0.01 to 1 nM	0.3 to 30 nM	CN1CCCC12CCN(c1cc(-c3cc(F)cc(-c4ccc(-n5ccn(C)c5=O)c(Cl)c4)c3O)cn(C)c1=O)C2 (stereo not drawn) [Example 696, 5-(3′-chloro-5-fluoro-2-hydroxy-4′-(3-methyl-2-oxo-2,3-dihydro-1H-imidazol-1-yl)-[1,1′-biphenyl]-3-yl)-1-methyl-3-(1-methyl-1,7-diazaspiro[4.4]nonan-7-yl)pyridin-2(1H)-one]
1 to 10 nM	30 to 300 nM	Cn1ccn(-c2ccc(-c3cc(F)cc(-c4ccnc(N5CCNC(CCN)C5)c4)c3O)cc2Cl)c1=O (stereo not drawn) [Example 697, 1-(3′-(2-(3-(2-aminoethyl)piperazin-1-yl)pyridin-4-yl)-3-chloro-5′-fluoro-2′-hydroxy-[1,1′-biphenyl]-4-yl)-3-methyl-1H-imidazol-2(3H)-one]
0.01 to 1 nM	0.3 to 30 nM	Cn1ccn(-c2ccc(-c3cc(F)cc(-c4ccnc(N5CCN[C@H](CC#N)C5)c4)c3O)cc2Cl)c1=O [Example 698, (R)-2-(4-(4-(3′-chloro-5-fluoro-2-hydroxy-4′-(3-methyl-2-oxo-2,3-dihydro-1H-imidazol-1-yl)-[1,1′-biphenyl]-3-yl)pyridin-2-yl)piperazin-2-yl)acetonitrile]
0.01 to 1 nM	0.3 to 30 nM	CC(C)N1CCN(c2cccc(-c3cc(F)cc(-c4ccc(-n5ccn(C)c5=O)c(Cl)c4)c3O)c2)CC1 [Example 699, 1-(3-chloro-5′-fluoro-2′-hydroxy-3″-(4-isopropylpiperazin-1-yl)-[1,1′:3′,1″-terphenyl]-4-yl)-3-methyl-1H-imidazol-2(3H)-one]
0.01 to 1 nM	0.3 to 30 nM	CN1CCCC12CCN(c1cncc(-c3cc(F)cc(-c4ccc(-n5ccn(C)c5=O)c(Cl)c4)c3O)c1)C2 (stereo not drawn) [Example 700, 1-(3-chloro-5′-fluoro-2′-hydroxy-3′-(5-(1-methyl-1,7-diazaspiro[4.4]nonan-7-yl)pyridin-3-yl)-[1,1′-biphenyl]-4-yl)-3-methyl-1H-imidazol-2(3H)-one]
0.01 to 1 nM	30 to 300 nM	Cn1ccn(-c2ccc(-c3cc(F)cc(-c4ccnc(N5CCC(N6CCC(F)CC6)C5)c4)c3O)cc2Cl)c1=O (stereo not drawn) [Example 701, 1-(3-chloro-5′-fluoro-3′-(2-(3-(4-fluoropiperidin-1-yl)pyrrolidin-1-yl)pyridin-4-yl)-2′-hydroxy-[1,1′-biphenyl]-4-yl)-3-methyl-1H-imidazol-2(3H)-one]
0.01 to 1 nM	0.3 to 30 nM	COc1cc(-c2cc(F)cc(-c3ccc(-n4ccn(C)c4=O)c(Cl)c3)c2O)cc(N2CCN(C(C)C)CC2)n1 [Example 702, 1-(3-chloro-5′-fluoro-2′-hydroxy-3′-(2-(4-isopropylpiperazin-1-yl)-6-methoxypyridin-4-yl)-[1,1′-biphenyl]-4-yl)-3-methyl-1H-imidazol-2(3H)-one]
1 to 10 nM	0.3 to 30 nM	Cc1cc(-c2cc(F)cc(-c3ccc(-n4ccn(C)c4=O)c(Cl)c3)c2O)cc(N2CCN(C(C)C)CC2)n1 [Example 703, 1-(3-chloro-5′-fluoro-2′-hydroxy-3′-(2-(4-isopropylpiperazin-1-yl)-6-methylpyridin-4-yl)-[1,1′-biphenyl]-4-yl)-3-methyl-1H-imidazol-2(3H)-one]
0.01 to 1 nM	0.3 to 30 nM	CCc1cc(-c2cc(F)cc(-c3ccc(-n4ccn(C)c4=O)c(Cl)c3)c2O)cc(N2CCN(C(C)C)CC2)n1 [Example 704, 1-(3-chloro-3′-(2-ethyl-6-(4-isopropylpiperazin-1-yl)pyridin-4-yl)-5′-fluoro-2′-hydroxy-[1,1′-biphenyl]-4-yl)-3-methyl-1H-imidazol-2(3H)-one]
0.01 to 1 nM	30 to 300 nM	Cn1ccn(-c2ccc(-c3cc(F)cc(-c4ccnc(N5CC6(CCNC6)CC5=O)c4)c3O)cc2Cl)c1=O (stereo not drawn) [Example 705, 2-(4-(3′-chloro-5-fluoro-2-hydroxy-4′-(3-methyl-2-oxo-2,3-dihydro-1H-imidazol-1-yl)-[1,1′-biphenyl]-3-yl)pyridin-2-yl)-2,7-diazaspiro[4.4]nonan-3-one]
0.01 to 1 nM	0.3 to 30 nM	Cn1ccn(-c2ccc(-c3cc(F)cc(-c4cc(F)cc(N5CCNCC5)c4)c3O)cc2Cl)c1=O [Example 706, 1-(3-chloro-3″,5′-difluoro-2′-hydroxy-5″-(piperazin-1-yl)-[1,1′:3,1″-terphenyl]-4-yl)-3-methyl-1H-imidazol-2(3H)-one]
1 to 10 nM	30 to 300 nM	Cn1ccn(-c2ccc(-c3cc(F)cc(-c4ccnc(N5CCS(=O)(=O)CC5)c4)c3O)cc2Cl)c1=O [Example 707, 1-(3-chloro-3′-(2-(1,1-dioxidothiomorpholino)pyridin-4-yl)-5′-fluoro-2′-hydroxy-[1,1′-biphenyl]-4-yl)-3-methyl-1H-imidazol-2(3H)-one]
0.01 to 1 nM	0.3 to 30 nM	Cn1ccn(-c2ccc(-c3cc(F)cc(-c4cncc(N5CCC(C)(O)C5)c4)c3O)cc2Cl)c1=O (stereo not drawn) [Example 708, 1-(3-chloro-5′-fluoro-2′-hydroxy-3′-(5-(3-hydroxy-3-methylpyrrolidin-1-yl)pyridin-3-yl)-[1,1′-biphenyl]-4-yl)-3-methyl-1H-imidazol-2(3H)-one]
0.01 to 1 nM	0.3 to 30 nM	Cn1ccn(-c2ccc(-c3cc(F)cc(-c4ccnc(N5CC[C@](C)(N)C5)c4)c3O)cc2Cl)c1=O [Example 711, (S)-1-(3′-(2-(3-amino-3-methylpyrrolidin-1-yl)pyridin-4-yl)-3-chloro-5′-fluoro-2′-hydroxy-[1,1′-biphenyl]-4-yl)-3-methyl-1,3-dihydro-2H-imidazol-2-one]
0.01 to 1 nM	30 to 300 nM	CN1CCC2(CC(=O)N(c3cc(-c4cc(F)cc(-c5ccc(-n6ccn(C)c6=O)c(Cl)c5)c4O)ccn3)C2)C1 (stereo not drawn) [Example 712, 2-(4-(3′-chloro-5-fluoro-2-hydroxy-4′-(3-methyl-2-oxo-2,3-dihydro-1H-imidazol-1-yl)-[1,1′-biphenyl]-3-yl)pyridin-2-yl)-7-methyl-2,7-diazaspiro[4.4]nonan-3-one]
0.01 to 1 nM	0.3 to 30 nM	CC(C)N1CCN(c2cc(F)cc(-c3cc(F)cc(-c4ccc(-n5ccn(C)c5=O)c(Cl)c4)c3O)c2)CC1 [Example 713, 1-(3-chloro-3″,5′-difluoro-2′-hydroxy-5″-(4-isopropylpiperazin-1-yl)-[1,1′:3′,1″-terphenyl]-4-yl)-3-methyl-1H-imidazol-2(3H)-one]
0.01 to 1 nM	30 to 300 nM	Cn1ccn(-c2ccc(-c3cc(F)cc(-c4ccnc(N5CCCC(C)(O)C5)c4)c3O)cc2Cl)c1=O (stereo not drawn) [Example 714, 1-(3-chloro-5′-fluoro-2′-hydroxy-3′-(2-(3-hydroxy-3-methylpiperidin-1-yl)pyridin-4-yl)-[1,1′-biphenyl]-4-yl)-3-methyl-1H-imidazol-2(3H)-one]
0.01 to 1 nM	0.3 to 30 nM	COCCCOc1cc(-c2cc(F)cc(-c3ccc(-n4ccn(C)c4=O)c(Cl)c3)c2O)cc(N2CCN[C@H](C)C2)n1 [Example 715, (R)-1-(3-chloro-5′-fluoro-2′-hydroxy-3′-(2-(3-methoxypropoxy)-6-(3-methylpiperazin-1-yl)pyridin-4-yl)-[1,1′-biphenyl]-4-yl)-3-methyl-1H-imidazol-2(3H)-one]
0.01 to 1 nM	0.3 to 30 nM	Cn1ccn(-c2ccc(-c3cc(F)cc(-c4ccnc(N5CC[C@@](C)(N)C5)c4)c3O)cc2Cl)c1=O [Example 716, (R)-1-(3′-(2-(3-amino-3-methylpyrrolidin-1-yl)pyridin-4-yl)-3-chloro-5′-fluoro-2′-hydroxy-[1,1′-biphenyl]-4-yl)-3-methyl-1,3-dihydro-]
0.01 to 1 nM	0.3 to 30 nM	CC(C)N1CCN(c2cc(-c3cc(F)cc(-c4ccc(-n5ccn(C)c5=O)c(Cl)c4)c3O)cc(=O)n2C)CC1 [Example 717, 4-(3′-chloro-5-fluoro-2-hydroxy-4′-(3-methyl-2-oxo-2,3-dihydro-1H-imidazol-1-yl)-[1,1′-biphenyl]-3-yl)-6-(4-isopropylpiperazin-1-yl)-1-methylpyridin-2(1H)-one]
0.01 to 1 nM	0.3 to 30 nM	Cn1ccn(-c2ccc(-c3cc(F)cc(-c4ccnc(N5CCC(O)(C6CC6)C5)c4)c3O)cc2Cl)c1=O (stereo not drawn) [Example 718, 1-(3-chloro-3′-(2-(3-cyclopropyl-3-hydroxypyrrolidin-1-yl)pyridin-4-yl)-5′-fluoro-2′-hydroxy-[1,1′-biphenyl]-4-yl)-3-methyl-1H-imidazol-2(3H)-one]
0.01 to 1 nM	0.3 to 30 nM	Cn1ccn(-c2ccc(-c3cc(F)cc(-c4ccc(F)c(N5CCN(C(C)(C)C)CC5)c4)c3O)cc2Cl)c1=O [Example 719, 1-(3″-(4-(tert-butyl)piperazin-1-yl)-3-chloro-4″,5′-difluoro-2′-hydroxy-[1,1′:3′,1″-terphenyl]-4-yl)-3-methyl-1H-imidazol-2(3H)-one]
